Here are results for nine compounds from ChEMBL document CHEMBL1201862, “PubChem BioAssay data set” (2004).

Test systems include SN12C; NCI-H226; HOP-92; CCRF-CEM; KM12; SNB-75; MDA-MB-231; SF-295; SK-MEL-5; MDA-N; SF-539; 786-0; NCI-H460; HL-60; MOLT-4; HT-29; BT-549; HCC 2998.
Test in all cases: DTP human tumour cell line panel, 48 h

Structures are written as SMILES.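 1) Cells in 96-well plates. 2) Compound, 48 h, 5 concentrations. 3) Linear interpolation between surrounding doses. 4) Unreached endpoint = highest concentration. Here, GI50 denotes the concentration required for 50% inhibition of growth.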 Activity calls are given as the source filed them. Cut-off read from the data, not from the text of the source: active = GI50 up to about 1.1 µM and inactive = higher.

`CC(=O)OC1CCC2(C)C(=CCC3C2CCC2(C)C3CC3OC4(CCC(C)CN4)C(C)C32)C1` (configuration not stated): the GI50 in the test on SN12C, in the test on NCI-H226, with HOP-92, with CCRF-CEM, with KM12 and in the test on SNB-75 was > 100 µM (inactive) in each case. Also, the GI50 with MDA-MB-231 was > 100 µM (inactive); in the test with SF-295 it was > 100 µM (inactive); in the test on SK-MEL-5 it was > 100 µM (inactive); with MDA-N, > 100 µM (inactive); with SF-539 it was > 100 µM (inactive); in the test on 786-0, 74.3 µM (inactive). For the same compound, the GI50 with NCI-H460, in the test on HL-60, in the test on MOLT-4, in the test on HT-29 and in the test on BT-549 was > 100 µM (inactive) throughout.

As to `COc1ccc2cc(C(=O)CCC(=O)O)ccc2c1`, the GI50 is > 100 µM (inactive) in the test with SN12C; > 100 µM (inactive) in the test on NCI-H226; > 100 µM (inactive) with HOP-92; > 100 µM (inactive) in the test on CCRF-CEM; > 100 µM (inactive) with KM12; 50.1 µM (inactive) with SNB-75. Moreover, the GI50 in the test with MDA-MB-231 was > 100 µM (inactive); in the test on SF-295 it was > 100 µM (inactive); with SK-MEL-5 it was > 100 µM (inactive); with MDA-N, > 100 µM (inactive); in the test on SF-539, > 100 µM (inactive); in the test on 786-0, 22.4 µM (inactive). For the same compound, the GI50 with NCI-H460, in the test on HL-60, in the test with MOLT-4, in the test on HT-29 and in the test on BT-549 was > 100 µM (inactive) each time.

As to `O=C(O)/C(Cc1c[nH]nn1)=N\O`, the GI50 with SN12C, with NCI-H226, with HOP-92, in the test on CCRF-CEM, in the test with KM12 and with SNB-75 was > 100 µM (inactive) in each case. Besides, the GI50 with MDA-MB-231, in the test on SF-295, with SK-MEL-5, in the test with MDA-N, in the test on SF-539 and in the test with 786-0 was > 100 µM (inactive) in each case. For the same compound, the GI50 in the test with NCI-H460, in the test with HL-60, in the test with MOLT-4, with HT-29 and in the test with BT-549 was > 100 µM (inactive) each time.

As to `CC(C)C(=O)[C@@]1(C)SC[C@H]2CCN=C21`, the GI50 with SN12C is > 100 µM (inactive); in the test on NCI-H226 it was > 100 µM (inactive); in the test on HOP-92 it was 16.9 µM (inactive); in the test with CCRF-CEM it was > 100 µM (inactive); with KM12, > 100 µM (inactive); in the test with SF-295, > 100 µM (inactive). Moreover, the GI50 in the test with SK-MEL-5 was > 100 µM (inactive); with MDA-N, 34.8 µM (inactive); in the test on SF-539, > 100 µM (inactive); with 786-0 it was > 100 µM (inactive); in the test on NCI-H460 it was > 100 µM (inactive); with HCC 2998 it was > 100 µM (inactive). The GI50 is > 100 µM (inactive) in the test on HL-60, 42.9 µM (inactive) with MOLT-4, > 100 µM (inactive) in the test on HT-29 and > 100 µM (inactive) in the test with BT-549.

For `Nc1nc2ncc(SCc3ccc(C(=O)NC(CCC(=O)O)C(=O)O)cc3)cc2c(=O)[nH]1` (configuration not stated), the GI50 with SN12C, in the test on NCI-H226, in the test with HOP-92, in the test on KM12, in the test with SF-295 and in the test with SK-MEL-5 was > 100 µM (inactive) throughout. Besides, the GI50 with MDA-N, with SF-539, with 786-0, with NCI-H460, in the test with HCC 2998 and in the test with HL-60 was > 100 µM (inactive) each time. For the same compound, the GI50 with MOLT-4, in the test on HT-29 and in the test on BT-549 was > 100 µM (inactive) throughout.

Regarding `Cc1ccc(S(=O)(=O)NC(=O)NCC(N)=O)cc1`, the GI50 in the test on SN12C, with HOP-92, in the test on CCRF-CEM, with KM12, in the test on SNB-75 and in the test on MDA-MB-231 was > 100 µM (inactive) each time. Also, the GI50 in the test on SF-295, with SK-MEL-5, in the test with MDA-N, in the test on SF-539, in the test with 786-0 and in the test with NCI-H460 was > 100 µM (inactive) in each case. For the same compound, the GI50 with HL-60, with MOLT-4, in the test with HT-29 and in the test on BT-549 was > 100 µM (inactive) throughout.

Turning to `CC(/C=C/C(O)=C1/C(=O)CNC1=O)=C\[C@@H](C)[C@H]1O[C@@]2(C)O[C@H](C(=O)[C@@H]3O[C@@]32C)[C@@H]1C`, the GI50 was 20.3 µM (inactive) in the test on SN12C; 21.2 µM (inactive) in the test with NCI-H226; 7.24 µM (inactive) in the test on CCRF-CEM; 20 µM (inactive) with KM12; 34.8 µM (inactive) with SNB-75; 18.4 µM (inactive) in the test with MDA-MB-231. The GI50 in the test with SK-MEL-5 was 17.5 µM (inactive); in the test with MDA-N, 35.8 µM (inactive); in the test on SF-539 it was 18.7 µM (inactive); with 786-0, 16.7 µM (inactive); with HL-60, 11.7 µM (inactive); in the test with MOLT-4, 14.7 µM (inactive). The GI50 was 21.9 µM (inactive) in the test on HT-29 and 15.8 µM (inactive) with BT-549.

With `Cc1c(CCCl)c(N=[N+]=[N-])n2c(nc3ccccc32)c1C#N`, the GI50 in the test on SN12C is 1.71 µM (inactive); in the test on NCI-H226, 1.82 µM (inactive); with HOP-92, 1.25 µM (inactive); in the test with CCRF-CEM, 0.236 µM (active); with KM12, 1.66 µM (inactive); in the test with SNB-75 it was 1.46 µM (inactive). The GI50 in the test on MDA-MB-231 is 1.42 µM (inactive); in the test with SF-295 it was 1.67 µM (inactive); in the test with SK-MEL-5 it was 0.491 µM (active); in the test on MDA-N, 1.56 µM (inactive); in the test on SF-539, 1.82 µM (inactive); with 786-0, 0.601 µM (active). Further, the GI50 in the test with NCI-H460 was 1.39 µM (inactive); in the test with HL-60 it was 0.348 µM (active); with MOLT-4 it was 0.249 µM (active); in the test on HT-29 it was 1.58 µM (inactive); in the test on BT-549, 0.867 µM (active).

As to `O=S(=O)(O)c1ccc(/N=N\c2c(O)ccc3cc(Br)ccc23)cc1`, the GI50 in the test with SN12C, with HOP-92, with CCRF-CEM, with KM12, in the test on SNB-75 and with MDA-MB-231 was > 100 µM (inactive) throughout. The GI50 in the test on SF-295, in the test with SK-MEL-5, in the test on MDA-N, in the test on 786-0, in the test on MOLT-4 and in the test with HT-29 was > 100 µM (inactive) in each case. The GI50 in the test on BT-549 is > 100 µM (inactive).
